{"source": "paper PMC4364779", "about": "“IMD-4690, a Novel Specific Inhibitor for Plasminogen Activator Inhibitor-1, Reduces Allergic Airway Remodeling in a Mouse Model of Chronic Asthma via Regulating Angiogenesis and Remodeling-Related Mediators” (PLoS ONE, 2015)", "type_in_all_cases": "in vivo, mouse", "key": {"[1]": {"system": "chronic allergen exposure model of bronchial asthma in mice", "experiment": "Lung histopathology and morphological analyses, chronic Dp asthma model", "description": "(§1) All mice were sensitized on days 0 and 7 by intraperitoneal injections of 10 μg of Dp dissolved in 500 μL saline and mixed with 1mg of Alum (Sigma-Aldrich Japan). Dp-sensitized mice were challenged intranasally with 10 μg (10 μL) Dp in 70 μL saline on alternate days, 3 days per week, from days 14 to 67. The mice were also treated intraperitoneally with IMD-4690 (10 mg/kg) (Dp/IMD group) or CMC alone (Dp/CMC group) at the same day with Dp challenge. As a control, mice were challenged with saline and given CMC during this period (control/CMC group) (Fig. 1A). Each experiment was performed using six mice per group.\nThe lung tissues were harvested, fixed in 10% formalin, and embedded in paraffin. Three-micrometer-thick sections were stained with Giemsa, Periodic acid-Schiff (PAS) or Azan Mallory.\nSections of lung tissue were stained immunohistochemically to detect α-smooth muscle actin (SMA), platelet endothelial cell adhesion molecule-1 (PECAM-1)/CD31. Mouse monoclonal anti-smooth muscle (1:800) (Thermo Fisher Scientific Inc., Fremont, CA, USA), or ready-to-use mouse monoclonal CD31 (GeneTex Inc., Irvine, CA, USA) was used as a primary antibody. For immunohistochemical staining, the VECTASTAIN ABC Kit (Vector Laboratories) and the Vector M.O.M. Immunodetection Kit (Vector Laboratories) were used according to the manufacturers’ protocols. Diaminobenzidine was used as a substrate for the immunoperoxidase reaction. Sections were lightly counterstained with hematoxylin and analyzed by bright-field microscopy.\nAn OLYMPUS BX61 microscope (Olympus, Tokyo, Japan) with Scion Image software was used for the morphological analysis. Eosinophils were counted according to a previously described method. The thickness of subepithelial fibrosis and smooth muscle layer were analyzed as follows. The area of subepithelial fibrosis (stained blue) and smooth muscle layer (α-SMA positive) around a bronchus was measured. The average thickness was determined by the area of the positive layer divided by the length of the internal circumference of the area. The mean values for thickness were calculated for 8–10 bronchi per left lung lobe.\nTo quantify the microvessel density, the number of CD31-positive blood vessels per field was counted in 5 random fields in each sample."}, "[2]": {"system": "chronic allergen exposure model of bronchial asthma in mice", "experiment": "Serum IgE (ELISA), chronic Dp asthma model", "conditions": "10 mg/kg i.p., vs Dp/CMC mice", "description": "as §1\nProtein concentrations were determined by the BCA method (Pierce, Rockford, IL, USA). Cytokines, growth factors, enzymes, and serum IgE were determined using commercial ELISA kits. […]"}, "[3]": {"system": "chronic allergen exposure model of bronchial asthma in mice", "experiment": "Lung resistance (RL) by restrained whole body plethysmography, chronic Dp asthma model", "conditions": "at 25 and 50 mg/mL of Mch, day 70, 10 mg/kg i.p., vs Dp/CMC mice", "description": "as §1\nSeventy-two hours after the final challenge (day 70), lung resistance (RL) was measured by restrained whole body plethysmography (Buxco Electronics). Mice were anesthetized by 6 mg/mL 2,2,2-tribromoethanol with 2-methyl-2-butanol. Then mice were tracheostomized and cannulated with a 19-gauge tracheostomy tube, and were placed in the chamber for plethysmography and mechanically ventilated. Aerosolized β-methacholine (Mch) was administered by an in-line aerosol delivery system at different concentrations (6.25, 12.5, 25, and 50 mg/mL). After each Mch challenge, data were continuously collected, and values of RL were taken to express the changes in these functional parameters. The data were expressed as the percentage change from baseline RL obtained after inhalation of saline."}}}
{"smiles": "CC(C)(C)c1ccc(Oc2cc(-c3ccc(OC(F)(F)F)cc3)ccc2OCC(=O)O)cc1", "note": "[IMD-4690, 2-[[3-(4-tert-Butylphenoxy)-4'-(trifluoromethoxy) [1,1'-biphenyl]-4-yl]oxy] acetic acid]", "values": [{"measurement": "Subepithelial thickness (subepithelial fibrosis)", "setting": "[1]; Azan-Mallory sections, Dp/IMD mice 10 mg/kg i.p.", "value": "significantly decreased"}, {"measurement": "Vascular density (CD31-positive blood vessels)", "setting": "[1]; CD31 immunohistochemistry, 10 mg/kg i.p.", "value": "significantly decreased"}, {"measurement": "Number of infiltrating eosinophils in the subepithelium", "setting": "[1]; Giemsa-stained lung sections, 10 mg/kg i.p., vs Dp/CMC mice", "value": "significantly decreased"}, {"measurement": "Number of PAS-positive cells (mucous metaplasia)", "setting": "[1]; PAS staining of lungs, 10 mg/kg i.p., vs Dp/CMC mice", "value": "decreased"}, {"measurement": "Subepithelial smooth muscle thickness", "setting": "[1]; α-SMA immunohistochemistry, 10 mg/kg i.p.", "value": "significant reduction"}, {"measurement": "Serum IgE", "setting": "[2]", "value": "significantly decreased"}, {"measurement": "Airway resistance (RL)", "setting": "[3]", "value": "significantly reduced"}]}
